Test results: patent publication US20090068150A1, “LACTIC ACID BACTERIA CULTURE OF MUNG BEAN AND THE PREPARATION METHOD OF THE SAME, AND THE COSMETIC COMPOSITION COMPRISING THE SAME” (Doosan Corporation, priority 2005, published 2009)

Legend:
[1] = test system: CD-1 mouse; experiment: Inflammation (skin stimulus) alleviating effect on TPA-induced ear inflammation; format: in vivo
Experimental: In order to examine the inflammation (skin stimulus) alleviating effect of the lactic acid bacteria culture of mung bean containing the mung bean extract and GABA, which was obtained in the embodiment 2, a following test was conducted according to a method used by Sheu et al. (The Journal of Investigative Dermatology, 118, pp 94-101, 2002).
First, CD-1 mouse (male & female, 6-8 weeks, Charles River, USA) were used as test objects, and as stimulus material, 10 μl of TPA (12-O-tetradecanonylphorbol-13-acetate) 0.03% (wt/vol. in acetone) solution was applied to inside and outside of both ears of the test animals. Due to the treatment material, the ear was thickened and there occurred an inflammatory reaction. After that, as a positive control group, clofibrate (1 mM) and Wy14643 (1 mM) which are agonists of PPAR CL (Sheu et al., The Journal of Investigative Dermatology, 118, pp 94-101, 2002), and as a test material, the lactic acid bacteria culture of mung bean in the embodiment 2 were applied to the both surfaces of the ears in an amount of […], respectively, at 45 minutes and 4 hours after the inflammation induction.

[2] = test system: skin; conditions: applied to the skin; cited from earlier work

Cc1cccc(Nc2cc(Cl)nc(SCC(=O)O)n2)c1C [WY14643]
ear swelling vs control group treated with TPA only (FIG. 4) ([1]; TPA + WY14643 (1 mM), applied 45 minutes and 4 hours after induction): the swelling was decreased | inflammation alleviation, H&E dyed tissue slide (FIG. 5) ([1]; positive controls 1 mM (group C Wy14643, group B clofibrate), vs TPA only): the inflammation was also alleviated | skin inflammation due to stimulus materials after application to the skin [2]: the inflammation due to stimulus materials is decreased
